Measured values as given in patent US5847125A, “Amino acid derivatives with anticholecystokinin activity” (James Black Foundation Limited, priority 1992, dated 1998).
Where two headings read alike, the source gives them in different places.

How the values were obtained:
CCKB receptor = target: T1, CCKB receptor (Mus musculus, UniProt P56481); experiment: CCKB radioligand binding assay in mouse cortical membranes, [125I] CCK-8S (selectivity testing); parameters: species or system male mice; conditions: [125I] CCK-8S 200 pM, 150 min at 21°; for Ki: pH 7.2, non-specific binding L-365,260, read-out: pKi CCKB (converted)
T1 construct: CCKB receptor in mouse cortical membranes; from tissue; host or cells: mouse cerebral cortex membranes (male mice, Charles River)
T1 sequence (P56481 1-453): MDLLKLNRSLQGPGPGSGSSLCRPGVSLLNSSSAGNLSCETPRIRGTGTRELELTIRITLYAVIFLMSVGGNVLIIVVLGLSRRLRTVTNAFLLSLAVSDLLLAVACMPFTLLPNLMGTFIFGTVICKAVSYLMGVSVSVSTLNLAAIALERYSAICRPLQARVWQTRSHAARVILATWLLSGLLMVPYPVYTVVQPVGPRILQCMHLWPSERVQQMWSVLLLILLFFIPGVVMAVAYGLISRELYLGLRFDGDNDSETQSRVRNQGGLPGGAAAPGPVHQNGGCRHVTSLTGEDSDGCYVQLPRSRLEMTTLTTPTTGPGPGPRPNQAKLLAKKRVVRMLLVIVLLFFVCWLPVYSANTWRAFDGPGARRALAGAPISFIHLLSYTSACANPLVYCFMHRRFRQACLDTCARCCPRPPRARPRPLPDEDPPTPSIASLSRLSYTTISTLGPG
Method: The compounds were assayed for selectivity with respect to the CCKB receptor in mouse cortical membranes by means of a radioligand binding assay. The procedure was as follows:
The whole brains from male mice (CDI 22-25 g; Charles River) were removed and placed in ice-cold buffer (pH 7.2 at 21°±3° C.) of the following composition (mM); 10 HEPES, 130 NaCl, 4.7 KCl, 5 MgCl2, 1 EDTA and containing 0.25 g. 1^-1 bacitracin.
The cortex was dissected, weighed and homogenised in 40 ml ice-cold buffer using a Teflon-in-glass homogeniser. The homogenate was centrifuged at 39,800 g for 20 min at 4° C., the supernatant discarded and the pellet resuspended by homogenisation in fresh buffer. The homogenate was recentrifuged (39,800 g; 20 min at 4° C.) and the final pellet was resuspended in HEPES buffer to give a tissue concentration of 2 mg ml^-1 (original wet weight).
The membranes (400 μl) were incubated for 150 min at 21°±3° C. in a final volume of 0.5 ml with HEPES buffer containing [^125 I] CCK-8S (0.05 ml; 200 pM NEN 2200Ci.mmol^-1) and competing compound. Total and non-specific binding of [^125 I] CCK-8S were defined using 0.05 ml of buffer and 0.05 ml of 10 mM L-365,260, respectively. The assay was terminated by rapid filtration through pre-soaked Whatman GF/B filters using a Brandell Cell harvester. The filters were washed (3×3 ml) with ice-cold 50 mM Tris-HCl (pH 7.4 at 4° C.) and bound radioactivity determined by counting (1 min.) in a gamma counter.

[1] = target: T2, CCK (gallbladder) receptor (Cavia porcellus, UniProt Q63931); experiment: CCK-receptor bioassay, isolated guinea-pig gall-bladder strip preparations, CCK-8 as agonist; assay type: cell-based, male Dunkin-Hartley guinea-pigs; conditions: negative log10 of equilibrium dissociation constant, guinea-pig gall-bladder strips, CCK-8 agonist, test compound incubated for 60 minutes, 37° C; for Kb: read-out: pKB versus CCK (gallbladder) (converted)
T2 construct: Isolated, strip preparations were prepared from gall-bladders removed from male Dunkin-Hartley guinea-pigs; from tissue; host or cells: guinea-pig gall-bladder strips
T2 sequence (Q63931 1-430): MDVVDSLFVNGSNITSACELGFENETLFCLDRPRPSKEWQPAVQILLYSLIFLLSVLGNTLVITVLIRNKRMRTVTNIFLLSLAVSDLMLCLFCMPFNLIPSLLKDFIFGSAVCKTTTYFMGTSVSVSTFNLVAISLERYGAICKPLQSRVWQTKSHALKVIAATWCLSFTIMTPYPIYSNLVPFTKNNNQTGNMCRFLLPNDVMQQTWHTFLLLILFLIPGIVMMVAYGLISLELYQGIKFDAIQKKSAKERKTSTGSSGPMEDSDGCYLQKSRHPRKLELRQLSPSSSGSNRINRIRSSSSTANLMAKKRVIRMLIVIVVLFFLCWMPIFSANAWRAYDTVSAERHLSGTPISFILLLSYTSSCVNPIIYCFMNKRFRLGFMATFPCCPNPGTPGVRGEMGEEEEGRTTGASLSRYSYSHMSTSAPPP
Method: The compounds of the examples were assayed using a CCK-receptor bioassay as follows:
Isolated, strip preparations were prepared from gall-bladders removed from male Dunkin-Hartley guinea-pigs (250-500 g body weight) according to the method of La Morte, W. W., et al., J.P.E.T., 217, (3), 638-644 (1981).
The complete gall-bladder is removed and opened along the longitudinal axis. Strips measuring 3 mm in the longitudinal axis and 1 mm in the transverse axis are cut and then tied with cotton to stainless steel wires. The preparation is connected to a GRASS FTO3 isometric transducer under an initial loading tension of 1 g and is immersed in 20 mls of Krebs solution maintained at 37° C. and gassed with 95% O2 /5% CO2. The Krebs solution is as detailed above in connection with the fundus assay, except that the Ca^2+ concentration is decreased to 0.5 mM. After 30 mins the preparation is washed. Drug addition begins after an initial 90 min stabilisation period. Responses are measured as changes in tension from that immediately prior to any drug addition. Single cumulative agonist concentration-effect curves, using CCK-8 as agonist, are obtained on each preparation in the absence and presence of test compound which has been incubated for 60 minutes. The antagonist activity of the test compound is estimated and expressed as the negative logarithm (base 10) of the equilibrium dissociation constants (pKB) using the modifications of standard competitive analysis described by Black et al., Br. J. Pharmacol.,86,571-579, (1985) and Shankley et al., Br. J. Pharmacol.,94,264-274 (1988).

CCKA = target: T3, CCKA (Cavia porcellus, UniProt Q63931); experiment: CCKA binding assay, pancreas membranes, [125I]-CCK8(S); parameters: species or system male guinea-pigs (Dunkin Hartley)
T3 construct: The pancreatata were removed from male guinea-pigs (200-300 g; Dunkin Hartley); from tissue; host or cells: guinea-pig pancreas membranes
T3 sequence (Q63931 1-430): T2 sequence (Q63931 1-430)
Method: The compounds of the examples were also tested in a CCKA binding assay as follows:
The pancreatata were removed from male guinea-pigs (200-300 g; Dunkin Hartley) and placed in ice-cold HEPES buffer (pH 7.2@21°±3°). The pancreatata were homogenised in 40 ml ice-cold HEPES buffer using a polytron (Brinkmann, PT10, setting 10) 4×1 second. The homogenate was centrifuged at 39,800 g for 15 min at 4°. The supernatant was discarded and the pellet re-suspended using a Teflon-in-glass homogeniser in 20 volumes of fresh buffer and re-centrifuged as above. The final pellet was re-suspended using a Teflon-in-glass homogeniser to a tissue concentration of 1 mg ml^31 1 (original wet weight), and filtered through 500 μm pore-size Nytex mesh.
The membranes (400 μl; containing 0.375 μM PD134,308) are incubated for 150 minutes at 21°±3° in a final volume of 0.5 ml with HEPES buffer containing [^125 I]--CCK8 (S) (50 μl; 200 pM) and competing compound. Total and non-specific binding of [^125 I]--CCK8 (S) are defined using 50 μl of buffer and 50 μl of 100 nM L-364,718 respectively. The assay is terminated by rapid filtration through pre-soaked Whatman GF/B filters using a Brandell Cell Harvester. The filters were washed (3×3 ml) with ice-cold 50 mM Tris HCl (pH 7.4 at 4°) and bound radioactivity is determined by counting (1 min) in a gamma counter.

[2] = guinea-pig pancreas membranes, [125I]-CCK8(S) 200 pM, 0.375 μM PD134,308, 150 minutes at 21°, non-specific binding 100 nM L-364,718, read-out: pKi CCKλ (converted)

| SMILES | Ki (CCKB receptor) | Kb [1] | Ki (CCKA; [2]) | pKi CCKB (CCKB receptor; pH 7.2, non-specific binding L-365,260) | pKB versus CCK (gallbladder) [1] | pKi CCKλ (CCKA; guinea-pig pancreas membranes, [125I]-CCK8(S) 200 pM, 0.375 μM PD134,308, 150 minutes at 21°, non-specific binding 100 nM L-364,718) | Ki (CCKA) |
| --- | --- | --- | --- | --- | --- | --- | --- |
| O=C(O)C[C@H](NS(=O)(=O)c1ccc2ccccc2c1)C(=O)NCCC12CC3CC(CC(C3)C1)C2 [Example 12, 2-Naphthalenesulphonyl-L-aspartyl 2-(1-adamantyl) ethylamide] | 7940 nM | 50.1 nM | 126 nM |  |  |  |  |
| CCCCCN(CCCOC)C(=O)[C@H](CC(=O)O)NS(=O)(=O)c1ccc2ccccc2c1 [Example 8, 2-Naphthalenesulphonyl-L-aspartyl N-(3-methoxypropyl)pentylamide] |  |  |  | 4.4 | 6.7 | 5.6 |  |
| CCCCCN(CCCCC)C(=O)[C@H](CC(=O)O)NS(=O)(=O)c1ccc2ccccc2c1 [Example 1, 2-Naphthalenesulphonyl-L-aspartyl dipentylamide] | 7940 nM | 200 nM | 251 nM |  |  |  |  |
| CCCCC(CC)CN(CC(CC)CCCC)C(=O)[C@H](CC(=O)O)NS(=O)(=O)c1ccc2ccccc2c1 (stereo partly drawn) [Example 17, 2-Naphthalenesulphonyl-L-aspartyl di(2-ethyl)hexylamide] | 2000 nM |  | 1260 nM |  |  |  |  |
| O=C(O)C[C@H](NS(=O)(=O)c1ccc2ccccc2c1)C(=O)N1CCC2(CCCC2)CC1 [Example 13, 2-Naphthalenesulphonyl-L-aspartyl 3-azaspiro[5.4]decylamide] | 10000 nM | 6310 nM | 6310 nM |  |  |  |  |
| CCCCN(CCCC)C(=O)[C@H](CC(=O)O)NS(=O)(=O)c1ccc2ccccc2c1 [Example 3, 2-Naphthalenesulphonyl-L-aspartyl dibutylamide] | 25100 nM | 631 nM | 1000 nM |  |  |  |  |
| CCCCCNC(=O)[C@H](CC(=O)O)NS(=O)(=O)c1ccc2ccccc2c1 [Example 5, 2-Naphthalenesulphonyl-L-aspartyl pentylamide] | 100000 nM | 398 nM | 1000 nM |  |  |  |  |
| O=C(O)C[C@H](NS(=O)(=O)c1ccc2ccccc2c1)C(=O)NCCC1CCCCC1 [Example 11, 2-Naphthalenesulphonyl-L-aspartyl 2-cyclohexylethylamide] | 25100 nM | 79.4 nM | 158 nM |  |  |  |  |
| O=C(O)C[C@H](NS(=O)(=O)c1ccc2ccccc2c1)C(=O)NCC12CC3CC(CC(C3)C1)C2 [Example 10, 2-Naphthalenesulphonyl-L-aspartyl 1-adamantylmethylamide] | 6310 nM | 63.1 nM | 50.1 nM |  |  |  |  |
| O=C(O)C[C@H](NS(=O)(=O)c1ccc2ccccc2c1)C(=O)N1CCC2(CC1)OCCO2 [Example 14, 2-Naphthalenesulphonyl-L-aspartyl 1,4-dioxa-8-azaspiro-[5.4]decylamide] |  |  |  |  |  |  | 10000 nM |
| O=C(O)C[C@H](NS(=O)(=O)c1ccc2ccccc2c1)C(=O)N1CC2CCC(CC2)C1 [Example 15, 2-Naphthalenesulphonyl-L-aspartyl 3-azabicyclo-[3.2.2]nonylamide] | 25100 nM |  | 10000 nM |  |  |  |  |
| CCCCCN(CCCCC)C(=O)[C@@H](CCC(=O)O)NS(=O)(=O)c1ccc2ccccc2c1 [Example 2, 2-Naphthalenesulphonyl D-glutamyl dipentylamide] | 3980 nM | 1000 nM | 158 nM |  |  |  |  |
| CCCCCCN(C)C(=O)[C@H](CC(=O)O)NS(=O)(=O)c1ccc2ccccc2c1 [Example 7, 2-Naphthalenesulphonyl-L-aspartyl N-(methyl)hexylamide] | 50100 nM | 316 nM | 3160 nM |  |  |  |  |
| CC(C)(C)CCNC(=O)[C@H](CC(=O)O)NS(=O)(=O)c1ccc2ccccc2c1 [Example 6, 2-Naphthalenesulphonyl-L-aspartyl (3,3-dimethyl)-butylamide] | 25100 nM | 501 nM | 501 nM |  |  |  |  |
| CCCCCN(CCCCC)C(=O)[C@H](CC(=O)O)NS(=O)(=O)c1cccc2ccccc12 [Example 21, 1-Naphthalenesulphonyl-L-aspartyl dipentylamide] | 10000 nM | 1260 nM | 2000 nM |  |  |  |  |
| CCCCCC(CCCCC)NC(=O)[C@H](CC(=O)O)NS(=O)(=O)c1ccc2ccccc2c1 [Example 9, 2-Naphthalenesulphonyl-L-aspartyl (1-pentyl)hexylamide] | 3980 nM | 200 nM | 398 nM |  |  |  |  |
| CCCCCCN(CCCCCC)C(=O)[C@H](CC(=O)O)NS(=O)(=O)c1ccc2ccccc2c1 [Example 4, 2-Naphthalenesulphonyl-L-aspartyl dihexylamide] | 5010 nM | 158 nM | 126 nM |  |  |  |  |
| CCCCCOC(=O)[C@H](CC(=O)O)NS(=O)(=O)c1ccc2ccccc2c1 [Example 20, 2-Naphthalenesulphonyl-L-aspartyl pentyl ester] | 20000 nM |  | 2000 nM |  |  |  |  |
